Laboratory results as given in ChEMBL document CHEMBL1143427, “Interactions of ceftobiprole with beta-lactamases from molecular classes A to D” (Antimicrob Agents Chemother, 2007).

Key:
[1] = biological target: Beta-lactamase TEM (Escherichia coli) (UniProt P62593); experiment: Ratio of Kcat to Km of Escherichia coli TEM1 assessed as drug hydrolysis by spectrophotometry relative to cephaloridine; design: scale not given: the % may be the effect or the level left
[2] = biological target: T1, Beta-lactamase SHV-1 (Klebsiella pneumoniae) (UniProt P0AD64); experiment: Activity of Klebsiella pneumoniae SHV1 assessed as drug hydrolysis by spectrophotometry relative to cephaloridine; design: scale not given: the % may be the effect or the level left
T1 sequence (whole entry): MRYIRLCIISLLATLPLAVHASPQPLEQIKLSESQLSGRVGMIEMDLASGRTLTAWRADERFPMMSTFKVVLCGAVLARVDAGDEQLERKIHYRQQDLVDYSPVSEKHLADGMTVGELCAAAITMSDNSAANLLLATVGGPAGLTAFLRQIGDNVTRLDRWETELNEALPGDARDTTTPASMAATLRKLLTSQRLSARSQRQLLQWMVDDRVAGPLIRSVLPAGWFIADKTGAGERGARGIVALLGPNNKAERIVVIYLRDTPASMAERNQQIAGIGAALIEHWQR

[3] = biological target: T1, Beta-lactamase SHV-1 (Klebsiella pneumoniae); experiment: Ratio of Kcat to Km of Klebsiella pneumoniae SHV1 assessed as drug hydrolysis by spectrophotometry relative to cephaloridine; design: scale not given: the % may be the effect or the level left
[4] = biological target: Beta-lactamase CTX-M (Escherichia coli) (UniProt Q9EXV5); experiment: Activity of Escherichia coli CTX-M-15 assessed as drug hydrolysis by spectrophotometry relative to cephaloridine; design: scale not given: the % may be the effect or the level left
[5] = biological target: Beta-lactamase CTX-M (Escherichia coli) (UniProt Q9EXV5); experiment: Ratio of Kcat to Km of Escherichia coli CTX-M-15 assessed as drug hydrolysis by spectrophotometry relative to cephaloridine; design: scale not given: the % may be the effect or the level left
[6] = biological target: T2, Beta-lactamase (Klebsiella oxytoca) (UniProt Q8RT60); experiment: Activity of Klebsiella oxytoca beta-lactamase K1 assessed as drug hydrolysis by spectrophotometry relative to cephaloridine; design: scale not given: the % may be the effect or the level left
T2 sequence (whole entry): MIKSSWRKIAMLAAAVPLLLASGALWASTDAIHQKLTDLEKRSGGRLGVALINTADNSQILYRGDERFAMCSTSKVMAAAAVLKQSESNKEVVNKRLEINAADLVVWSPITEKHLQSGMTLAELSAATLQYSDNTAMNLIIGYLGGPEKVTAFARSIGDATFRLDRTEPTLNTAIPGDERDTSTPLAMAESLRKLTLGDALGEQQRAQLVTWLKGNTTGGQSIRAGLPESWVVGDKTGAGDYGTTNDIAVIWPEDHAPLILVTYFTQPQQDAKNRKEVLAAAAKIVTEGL

[7] = biological target: T2, Beta-lactamase (Klebsiella oxytoca); experiment: Ratio of Kcat to Km of Klebsiella oxytoca beta-lactamase K1 assessed as drug hydrolysis by spectrophotometry relative to cephaloridine; design: scale not given: the % may be the effect or the level left
[8] = test system: Klebsiella pneumoniae; experiment: Activity of Klebsiella pneumoniae TEM26 assessed as drug hydrolysis by spectrophotometry
[9] = test system: Klebsiella pneumoniae; experiment: Activity of Klebsiella pneumoniae TEM26 assessed as drug hydrolysis by spectrophotometry relative to cephaloridine; design: scale not given: the % may be the effect or the level left
[10] = test system: Klebsiella pneumoniae; experiment: Ratio of Kcat to Km of Klebsiella pneumoniae TEM26 assessed as drug hydrolysis by spectrophotometry
[11] = test system: Klebsiella pneumoniae; experiment: Ratio of Kcat to Km of Klebsiella pneumoniae TEM26 assessed as drug hydrolysis by spectrophotometry relative to cephaloridine; design: scale not given: the % may be the effect or the level left
[12] = biological target: T3, Carbapenem-hydrolyzing beta-lactamase SME-3 (Serratia marcescens) (UniProt Q6PRG8); experiment: Activity of Serratia marcescens SME3 assessed as drug hydrolysis by spectrophotometry relative to cephaloridine; design: scale not given: the % may be the effect or the level left
T3 sequence (whole entry): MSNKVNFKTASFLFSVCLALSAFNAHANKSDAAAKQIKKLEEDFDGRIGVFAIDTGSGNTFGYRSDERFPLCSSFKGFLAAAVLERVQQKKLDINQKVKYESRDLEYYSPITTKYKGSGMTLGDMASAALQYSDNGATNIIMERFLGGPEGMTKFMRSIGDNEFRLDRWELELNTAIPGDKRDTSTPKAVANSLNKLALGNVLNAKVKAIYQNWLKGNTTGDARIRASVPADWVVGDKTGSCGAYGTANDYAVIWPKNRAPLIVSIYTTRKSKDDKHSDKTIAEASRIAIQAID

[13] = biological target: T3, Carbapenem-hydrolyzing beta-lactamase SME-3 (Serratia marcescens); experiment: Ratio of Kcat to Km of Serratia marcescens SME3 assessed as drug hydrolysis by spectrophotometry relative to cephaloridine; design: scale not given: the % may be the effect or the level left
[14] = biological target: Beta-lactamase VIM-2 (Pseudomonas aeruginosa) (UniProt Q9K2N0); experiment: Activity of Pseudomonas aeruginosa VIM2 assessed as drug hydrolysis by spectrophotometry relative to cephaloridine; design: scale not given: the % may be the effect or the level left
[15] = biological target: Metallo beta-lactamase (Pseudomonas aeruginosa) (UniProt Q6TUJ4); experiment: Ratio of Kcat to Km of Pseudomonas aeruginosa IMP1 assessed as drug hydrolysis by spectrophotometry relative to cephaloridine; design: scale not given: the % may be the effect or the level left
Metallo beta-lactamase (Pseudomonas aeruginosa), sequence (Q6TUJ4 as listed by the source): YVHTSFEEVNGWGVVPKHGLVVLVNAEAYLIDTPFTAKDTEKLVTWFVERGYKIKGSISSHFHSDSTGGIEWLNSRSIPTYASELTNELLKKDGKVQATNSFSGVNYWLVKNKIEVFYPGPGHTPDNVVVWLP

[16] = biological target: Beta-lactamase VIM-2 (Pseudomonas aeruginosa) (UniProt Q9K2N0); experiment: Ratio of Kcat to Km of Pseudomonas aeruginosa VIM2 assessed as drug hydrolysis by spectrophotometry relative to cephaloridine; design: scale not given: the % may be the effect or the level left
[17] = biological target: Beta-lactamase (Morganella morganii) (UniProt P94958); experiment: Activity of Morganella morganii AmpC assessed as drug hydrolysis by spectrophotometry relative to cephaloridine; design: scale not given: the % may be the effect or the level left
[18] = biological target: Beta-lactamase TEM (Escherichia coli) (UniProt P62593); experiment: Activity of Escherichia coli TEM1 assessed as drug hydrolysis by spectrophotometry relative to cephaloridine; design: scale not given: the % may be the effect or the level left
[19] = biological target: Beta-lactamase (Staphylococcus aureus) (UniProt P00807); experiment: Ratio of Kcat to Km of Staphylococcus aureus betalactamase PC1 assessed as drug hydrolysis by spectrophotometry relative to cephaloridine; design: scale not given: the % may be the effect or the level left
Beta-lactamase (Staphylococcus aureus), sequence (P00807 whole entry): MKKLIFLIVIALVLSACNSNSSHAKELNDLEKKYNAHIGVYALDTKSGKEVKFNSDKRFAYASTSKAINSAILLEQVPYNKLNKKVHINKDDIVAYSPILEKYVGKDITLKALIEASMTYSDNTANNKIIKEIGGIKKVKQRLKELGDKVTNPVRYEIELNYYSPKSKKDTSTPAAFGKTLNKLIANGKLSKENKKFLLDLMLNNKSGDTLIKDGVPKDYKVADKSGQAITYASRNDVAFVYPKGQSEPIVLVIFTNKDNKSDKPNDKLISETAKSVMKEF

[20] = biological target: Beta-lactamase (Staphylococcus aureus) (UniProt P00807); experiment: Activity of Staphylococcus aureus betalactamase PC1 assessed as drug hydrolysis by spectrophotometry relative to cephaloridine; design: scale not given: the % may be the effect or the level left
[21] = biological target: Beta-lactamase (Morganella morganii) (UniProt P94958); experiment: Ratio of Kcat to Km of Morganella morganii AmpC assessed as drug hydrolysis by spectrophotometry relative to cephaloridine; design: scale not given: the % may be the effect or the level left
[22] = biological target: T4, Beta-lactamase (Providencia stuartii) (UniProt O69773); experiment: Activity of Providencia stuartii AmpC assessed as drug hydrolysis by spectrophotometry relative to cephaloridine; design: scale not given: the % may be the effect or the level left
T4 sequence (whole entry): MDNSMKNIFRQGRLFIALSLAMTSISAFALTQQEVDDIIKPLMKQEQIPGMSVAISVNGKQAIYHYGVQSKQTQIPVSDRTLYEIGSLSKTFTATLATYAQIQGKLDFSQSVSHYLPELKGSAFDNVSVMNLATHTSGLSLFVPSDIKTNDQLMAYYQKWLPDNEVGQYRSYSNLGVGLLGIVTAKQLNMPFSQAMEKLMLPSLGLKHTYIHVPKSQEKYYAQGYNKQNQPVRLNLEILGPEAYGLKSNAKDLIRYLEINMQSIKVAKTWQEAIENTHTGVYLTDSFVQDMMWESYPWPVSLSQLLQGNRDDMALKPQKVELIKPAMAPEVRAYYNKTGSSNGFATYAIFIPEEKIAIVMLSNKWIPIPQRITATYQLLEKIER

[23] = biological target: T4, Beta-lactamase (Providencia stuartii); experiment: Ratio of Kcat to Km of Providencia stuartii AmpC assessed as drug hydrolysis by spectrophotometry relative to cephaloridine; design: scale not given: the % may be the effect or the level left
[24] = biological target: Beta-lactamase (Pseudomonas aeruginosa (strain ATCC 15692 / PAO1 / 1C / PRS 101 / LMG12228)) (UniProt P24735); experiment: Activity of Pseudomonas aeruginosa 4352 AmpC assessed as drug hydrolysis by spectrophotometry relative to cephaloridine; design: scale not given: the % may be the effect or the level left
Beta-lactamase (Pseudomonas aeruginosa (strain ATCC 15692 / PAO1 / 1C / PRS 101 / LMG12228)), sequence (P24735 27-397 limits assumed): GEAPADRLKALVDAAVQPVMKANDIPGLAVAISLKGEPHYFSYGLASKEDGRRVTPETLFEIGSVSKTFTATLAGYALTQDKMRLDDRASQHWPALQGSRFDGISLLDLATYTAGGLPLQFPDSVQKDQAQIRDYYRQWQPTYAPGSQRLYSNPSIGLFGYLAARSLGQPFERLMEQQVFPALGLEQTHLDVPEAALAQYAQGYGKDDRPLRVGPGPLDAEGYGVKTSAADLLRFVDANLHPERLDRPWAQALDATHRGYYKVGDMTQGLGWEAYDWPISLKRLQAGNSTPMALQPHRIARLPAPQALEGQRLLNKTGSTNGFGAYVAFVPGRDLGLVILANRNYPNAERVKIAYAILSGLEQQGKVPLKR

[25] = biological target: Beta-lactamase (Pseudomonas aeruginosa (strain ATCC 15692 / PAO1 / 1C / PRS 101 / LMG12228)) (UniProt P24735); experiment: Ratio of Kcat to Km of Pseudomonas aeruginosa 4352 AmpC assessed as drug hydrolysis by spectrophotometry relative to cephaloridine; design: scale not given: the % may be the effect or the level left
[26] = biological target: Beta-lactamase (Pseudomonas aeruginosa (strain ATCC 15692 / PAO1 / 1C / PRS 101 / LMG12228)) (UniProt P24735); experiment: Activity of Pseudomonas aeruginosa 18SH AmpC assessed as drug hydrolysis by spectrophotometry relative to cephaloridine; design: scale not given: the % may be the effect or the level left
[27] = biological target: Beta-lactamase (Pseudomonas aeruginosa (strain ATCC 15692 / PAO1 / 1C / PRS 101 / LMG12228)) (UniProt P24735); experiment: Ratio of Kcat to Km of Pseudomonas aeruginosa 18SH AmpC assessed as drug hydrolysis by spectrophotometry relative to cephaloridine; design: scale not given: the % may be the effect or the level left
[28] = biological target: Beta-lactamase (Pseudomonas aeruginosa (strain ATCC 15692 / PAO1 / 1C / PRS 101 / LMG12228)) (UniProt P24735); experiment: Activity of Pseudomonas aeruginosa MK-1184 AmpC assessed as drug hydrolysis by spectrophotometry relative to cephaloridine; design: scale not given: the % may be the effect or the level left
[29] = biological target: Beta-lactamase (Pseudomonas aeruginosa (strain ATCC 15692 / PAO1 / 1C / PRS 101 / LMG12228)) (UniProt P24735); experiment: Ratio of Kcat to Km of Pseudomonas aeruginosa MK-1184 AmpC assessed as drug hydrolysis by spectrophotometry relative to cephaloridine; design: scale not given: the % may be the effect or the level left
[30] = biological target: Beta-lactamase (Serratia marcescens) (UniProt P18539); experiment: Activity of Serratia marcescens AmpC assessed as drug hydrolysis by spectrophotometry relative to cephaloridine; design: scale not given: the % may be the effect or the level left
Beta-lactamase (Serratia marcescens), sequence (P18539 whole entry): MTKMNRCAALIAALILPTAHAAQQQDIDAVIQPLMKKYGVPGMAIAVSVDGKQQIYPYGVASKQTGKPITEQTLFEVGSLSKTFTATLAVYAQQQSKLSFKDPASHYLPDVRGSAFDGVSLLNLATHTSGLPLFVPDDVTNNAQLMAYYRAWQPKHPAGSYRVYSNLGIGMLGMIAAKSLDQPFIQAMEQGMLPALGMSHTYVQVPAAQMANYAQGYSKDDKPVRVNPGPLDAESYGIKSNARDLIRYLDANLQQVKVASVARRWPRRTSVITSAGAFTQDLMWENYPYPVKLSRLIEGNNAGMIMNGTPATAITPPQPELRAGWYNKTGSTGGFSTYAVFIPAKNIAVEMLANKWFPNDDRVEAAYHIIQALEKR

[31] = biological target: Beta-lactamase (Serratia marcescens) (UniProt P18539); experiment: Ratio of Kcat to Km of Serratia marcescens AmpC assessed as drug hydrolysis by spectrophotometry relative to cephaloridine; design: scale not given: the % may be the effect or the level left
[32] = biological target: Beta-lactamase (Pseudomonas aeruginosa (strain ATCC 15692 / PAO1 / 1C / PRS 101 / LMG12228)) (UniProt P24735); experiment: Activity of Pseudomonas aeruginosa AmpC assessed as drug hydrolysis by spectrophotometry relative to cephaloridine; design: scale not given: the % may be the effect or the level left
[33] = biological target: Beta-lactamase (Pseudomonas aeruginosa (strain ATCC 15692 / PAO1 / 1C / PRS 101 / LMG12228)) (UniProt P24735); experiment: Ratio of Kcat to Km of Pseudomonas aeruginosa AmpC assessed as drug hydrolysis by spectrophotometry relative to cephaloridine; design: scale not given: the % may be the effect or the level left

Beta-lactamase TEM (Escherichia coli), sequence (P62593 whole entry): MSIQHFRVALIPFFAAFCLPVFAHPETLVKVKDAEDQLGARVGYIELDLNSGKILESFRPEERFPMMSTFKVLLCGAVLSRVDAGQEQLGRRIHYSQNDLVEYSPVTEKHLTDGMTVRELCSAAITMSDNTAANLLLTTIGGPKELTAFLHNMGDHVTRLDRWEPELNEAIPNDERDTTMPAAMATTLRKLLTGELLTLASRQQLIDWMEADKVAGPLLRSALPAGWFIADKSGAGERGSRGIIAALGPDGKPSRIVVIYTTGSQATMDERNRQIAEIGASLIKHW

SMILES	Activity [1] [%]	Activity [2] [%]	Activity [3] [%]	Activity [4] [%]	Activity [5] [%]	Activity [6] [%]	Activity [7] [%]	Km [8] [µM]	kcat [8] [s⁻¹]	Activity [9] [%]	kcat/Km [10] [s⁻¹ µM⁻¹]	Activity [11] [%]	Activity [12] [%]	Activity [13] [%]	Activity [17] [%]	Activity [21] [%]	Activity [24] [%]	Activity [25] [%]	Activity [30] [%]	Activity [31] [%]	also measured
CO/N=C(\C(=O)N[C@@H]1C(=O)N2C(C(=O)[O-])=C(C[N+]3(C)CCCC3)CS[C@H]12)c1csc(N)n1	0.38	0.42	0.81	24	5.1	8.5	0.84	65	20	54	0.31	55	0.13	0.18	< 0.047	< 0.018	< 0.012	0.011	< 0.028	< 0.022	Activity [14]: 0.32%; Activity [15]: 200%; Activity [16]: 4.1%; Activity [18]: 0.45%; Activity [19]: 2.5%; Activity [20]: 1.4%; Activity [22]: 0.57%; Activity [23]: 0.66%; Activity [26]: < 0.1%; Activity [27]: 0.5%; Activity [28]: 1.5%; Activity [29]: 0.78%; Activity [32]: 19%; Activity [33]: 1.6%
O=C(Cc1cccs1)N[C@@H]1C(=O)N2C(C(=O)O)=C(/C=C/c3ccc([N+](=O)[O-])cc3[N+](=O)[O-])CS[C@H]12	–	–	–	–	–	–	–	–	–	–	–	–	–	–	160	1400	68	1800	42	19	–
CC1(C)S[C@@H]2[C@H](NC(=O)Cc3ccccc3)C(=O)N2[C@H]1C(=O)O	5600	260	2600	25	110	160	400	5	76	210	15	2700	0.73	130	26	860	37	1100	0.95	290	Activity [14]: 61%; Activity [15]: 750%; Activity [16]: 570%; Activity [18]: 122%; Activity [19]: 1.5e+06%; Activity [20]: 46000%; Activity [22]: 0.62%; Activity [23]: 43%; Activity [26]: 35%; Activity [27]: 61%; Activity [28]: 91%; Activity [29]: 670%; Activity [32]: 540%; Activity [33]: 14000%
